According to paper PMC8813987, “Schwann cell endosome CGRP signals elicit periorbital mechanical allodynia in mice” (Nature Communications, 2022):

Molecular target: T1, CLR/RAMP1 (calcitonin receptor-like receptor) (Homo sapiens, UniProt O60894+Q16602)
T1 construct: gene CALCRL; with RAMP1
Test: inhibition of CGRP-evoked Ca2+ response in primary human Schwann cells (preincubation, then washout)
Format: cell-based

T1 sequence (Q16602 23-461): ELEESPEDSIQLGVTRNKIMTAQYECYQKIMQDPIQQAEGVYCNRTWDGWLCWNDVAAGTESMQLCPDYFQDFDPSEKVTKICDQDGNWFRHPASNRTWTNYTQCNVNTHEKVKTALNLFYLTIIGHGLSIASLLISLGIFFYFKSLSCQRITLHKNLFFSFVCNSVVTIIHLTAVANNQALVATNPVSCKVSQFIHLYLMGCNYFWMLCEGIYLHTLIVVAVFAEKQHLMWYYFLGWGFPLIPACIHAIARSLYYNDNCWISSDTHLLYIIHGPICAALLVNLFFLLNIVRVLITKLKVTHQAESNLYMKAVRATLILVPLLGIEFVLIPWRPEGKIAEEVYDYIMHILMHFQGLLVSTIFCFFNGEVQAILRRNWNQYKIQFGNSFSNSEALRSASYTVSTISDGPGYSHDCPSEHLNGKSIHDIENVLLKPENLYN
T1 sequence (O60894 27-148): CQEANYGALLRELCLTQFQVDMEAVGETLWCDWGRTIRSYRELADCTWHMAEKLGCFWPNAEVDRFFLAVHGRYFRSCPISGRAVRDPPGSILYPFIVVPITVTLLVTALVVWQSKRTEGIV

O=C(CN1C(=O)C2(CCCC2)NC[C@H]1c1cc(F)cc(F)c1)Nc1ccc2c(c1)C[C@@]1(C2)C(=O)Nc2ncccc21 [MK-3207] showed an IC50 of 2900 nM.
